Reference: patent publication US5328838A, “Method for identifying and/or isolating genes which code for membrane receptors” (Enichem Partecipazioni S.p.A., priority 1990, dated 1994)

Tested on: human β2-adrenergic receptor, β-galactosidase fusion protein expressed from λβ2 (λgt11) in E. coli Y1089
Conditions: 20 pM ICYP; non-radiolabeled agonists at 10^-8, 10^-8 and 10^-4 M; FIG. 3
Procedure: In order to further characterize the specificity of the test by replication on filters, 3 β-adrenergic agonists were tested on [λβ2] cells in bond-competition tests.
The bacterial cells were seeded on slabs of LB-agar of 10 cm of diameter and were grown for 12 hours at 30° C. Circular nitrocellulose filters (of 8.5 cm of diameter), previously drenched in 10 mM IPTG in the case of the expression of [λgt11], [λβ1] and [λβ2] lysogens were then laid above the bacterial colonies; the expression of proteins was induced for 2 hours, at 30° C. for the lysogenic colonies, and at 42° C. for the colonies transformed with pUEX1 and pUEXβ2, before the removal of the filters. The subsequent treatments were carried out at room temperature, with constant rocking. The replications on filter of the bacterial colonies were first incubated for 60 minutes in 10 ml of bond-establishing buffer (90 mM NaCl, 10 mM Tris-HCl pH 7.5) containing 20 mg/ml of bovine serumalbumin, and were then transferred for 90 minutes in 10 ml of bond-establishing buffer containing 20 mg/ml of bovine serumalbumin and 20 pM ICYP (2000 Ci/mmol, Amersham, U.K.). […]

SMILES	order of power of competition for the bond of ICYP
CNC[C@H](O)c1ccc(O)c(O)c1 [epinephrine, (-)-epinephrine]	isoprotenerol>epinephrine>norepinephrine
NC[C@H](O)c1ccc(O)c(O)c1 [norepinephrine, (-)-norepinephrine]	isoprotenerol>epinephrine>norepinephrine
